Data published in ChEMBL document CHEMBL1147423, “Synthesis and antifungal activities of phenylenedithioureas” (2004).
Converted amounts (≈) assume the structure as drawn.

What was measured:
[1] = system: Aspergillus niger; test: Minimum inhibitory concentration against Aspergillus niger; format: functional
[2] = system: Aspergillus flavus; test: Minimum inhibitory concentration against Aspergillus flavus; format: functional
[3] = system: Candida albicans; test: Minimum inhibitory concentration against Candida albicans ATCC 10231; format: functional
[4] = system: Escherichia coli; test: Minimum inhibitory concentration against Escherichia coli ATCC 25853; format: functional
[5] = system: Paraphyton cookei; test: Minimum inhibitory concentration against Microsporum cookei; format: functional
[6] = system: Nannizzia gypsea; test: Minimum inhibitory concentration Microsporum gypseum; format: functional
[7] = system: Nannizzia nana; test: Minimum inhibitory concentration against Microsporum nanum; format: functional
[8] = system: Pseudomonas aeruginosa; test: Minimum inhibitory concentration against Pseudomonas aeruginosae ATCC 27853; format: functional
[9] = system: Arthroderma uncinatum; test: Minimum inhibitory concentration against Trichophyton ajelloi; format: functional
[10] = system: Staphylococcus aureus; test: Minimum inhibitory concentration Staphylococcus aureus ATCC 29213; format: functional
[11] = system: Trichophyton benhamiae; test: Minimum inhibitory concentration against Trichophyton mentagrophytes; format: functional, Arthroderma benhamiae
[12] = system: Enterococcus faecalis; test: Minimum inhibitory concentration against Streptococcus faecalis ATCC 29212; format: functional

| SMILES | MIC [1] [mg/L] | MIC [2] [mg/L] | MIC [3] [mg/L] | MIC [4] [mg/L] | MIC [5] [mg/L] | MIC [6] [mg/L] | MIC [7] [mg/L] | MIC [8] [mg/L] | MIC [9] [mg/L] | MIC [10] [mg/L] | MIC [11] [mg/L] | MIC [12] [mg/L] |
| --- | --- | --- | --- | --- | --- | --- | --- | --- | --- | --- | --- | --- |
| CC(C)OC(=O)c1ccc(/N=C(\S)Nc2ccc(/N=C(/S)Nc3ccc(C(=O)OC(C)C)c(O)c3)cc2)cc1O | ≥ 512 | ≥ 512 | > 512 | > 512 | 128 (≈ 220 µM) | 256 (≈ 439 µM) | 128 (≈ 220 µM) | 512 (≈ 879 µM) | 128 (≈ 220 µM) | > 512 | > 512 | 512 (≈ 879 µM) |
| CCOC(=O)c1ccc(/N=C(\S)Nc2cccc(/N=C(/S)Nc3ccc(C(=O)OCC)cc3)c2)cc1 | ≥ 512 | ≥ 512 | > 512 | 512 (≈ 980 µM) | 256 (≈ 490 µM) | 64 (≈ 122 µM) | 256 (≈ 490 µM) | > 512 | 256 (≈ 490 µM) | 512 (≈ 980 µM) | 64 (≈ 122 µM) | > 512 |
| O=C(N[C@H](CO)[C@H](O)c1ccc([N+](=O)[O-])cc1)C(Cl)Cl [CHLORAMPHENICOL] | ≥ 512 | ≥ 512 |  |  |  |  |  | 512 (≈ 1580 µM) |  | 128 (≈ 396 µM) |  |  |
| O=C(O)c1ccc(/N=C(\S)Nc2cccc(/N=C(/S)Nc3ccc(C(=O)O)cc3)c2)cc1 | ≥ 512 | ≥ 512 | > 512 | > 512 | 32 (≈ 68.6 µM) | 64 (≈ 137 µM) | 64 (≈ 137 µM) | 512 (≈ 1100 µM) | 64 (≈ 137 µM) | 256 (≈ 549 µM) | 64 (≈ 137 µM) | 512 (≈ 1100 µM) |
| O=C(NNc1ccccc1)c1ccc(/N=C(\S)Nc2ccc(/N=C(/S)Nc3ccc(C(=O)NNc4ccccc4)c(O)c3)cc2)cc1O | ≥ 512 | ≥ 512 | 512 (≈ 754 µM) | 512 (≈ 754 µM) | 64 (≈ 94.3 µM) | 128 (≈ 189 µM) | 64 (≈ 94.3 µM) | 512 (≈ 754 µM) | 32 (≈ 47.1 µM) | 512 (≈ 754 µM) | 32 (≈ 47.1 µM) | 512 (≈ 754 µM) |
| CCOC(=O)c1ccc(/N=C(\S)Nc2cccc(/N=C(/S)Nc3ccc(C(=O)OCC)c(O)c3)c2)cc1O | ≥ 512 | ≥ 512 | > 512 | 512 (≈ 923 µM) | 64 (≈ 115 µM) | 32 (≈ 57.7 µM) | 32 (≈ 57.7 µM) | > 512 | 32 (≈ 57.7 µM) | 256 (≈ 462 µM) | 32 (≈ 57.7 µM) | > 512 |
| COC(=O)c1ccc(/N=C(\S)Nc2cccc(/N=C(/S)Nc3ccc(C(=O)OC)c(O)c3)c2)cc1O | ≥ 512 | ≥ 512 | 512 (≈ 972 µM) | 512 (≈ 972 µM) | 32 (≈ 60.8 µM) | 64 (≈ 122 µM) | 32 (≈ 60.8 µM) | > 512 | 128 (≈ 243 µM) | 256 (≈ 486 µM) | 64 (≈ 122 µM) | > 512 |
| COC(=O)c1ccc(/N=C(\S)Nc2ccc(/N=C(\S)Nc3ccc(C(=O)OC)cc3)cc2)cc1 | ≥ 512 | ≥ 512 | > 512 | > 512 | 128 (≈ 259 µM) | 256 (≈ 518 µM) | 32 (≈ 64.7 µM) | 512 (≈ 1040 µM) | 128 (≈ 259 µM) | > 512 | 32 (≈ 64.7 µM) | 512 (≈ 1040 µM) |
| O=C(O)c1ccc(/N=C(\S)Nc2ccc(/N=C(/S)Nc3ccc(C(=O)O)c(O)c3)cc2)cc1O | ≥ 512 | ≥ 512 | 256 (≈ 513 µM) | > 512 | 128 (≈ 257 µM) | 128 (≈ 257 µM) | 64 (≈ 128 µM) | 512 (≈ 1030 µM) | 128 (≈ 257 µM) | > 512 | 128 (≈ 257 µM) | 512 (≈ 1030 µM) |
| O=C(NNc1ccccc1)c1ccc(NC(=S)Nc2ccc(NC(=S)Nc3ccc(C(=O)NNc4ccccc4)cc3)cc2)cc1 | ≥ 512 | ≥ 512 | > 512 | 512 (≈ 792 µM) | 16 (≈ 24.7 µM) | 64 (≈ 98.9 µM) | 8 (≈ 12.4 µM) | 512 (≈ 792 µM) | 128 (≈ 198 µM) | 128 (≈ 198 µM) | 16 (≈ 24.7 µM) | 512 (≈ 792 µM) |
| CCOC(=O)c1ccc(/N=C(\S)Nc2ccc(/N=C(\S)Nc3ccc(C(=O)OCC)cc3)cc2)cc1 | ≥ 512 | ≥ 512 | > 512 | > 512 | 128 (≈ 245 µM) | > 512 | 128 (≈ 245 µM) | 512 (≈ 980 µM) | 256 (≈ 490 µM) | > 512 | 512 (≈ 980 µM) | 512 (≈ 980 µM) |
